This assay has as its system P388 leukemia ip, CD2F1 mice, survival T/C. In words: NCI In Vivo Anticancer Drug Screen. Data for tumor model P388 Leukemia (intraperitoneal) in CD2F1 (CDF1) mice. The conditions noted are these: endpoint: median survival time, higher = longer survival. An outline of the steps: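 Mice carrying the transplanted tumor received test compound or vehicle. Survival was recorded in each group, and the value is the treated-group measurement divided by that of the vehicle-treated control group.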

Setting [1] is: dose: 50.0 mg/kg/injection, schedule: Q01DX009 (ip), vehicle: saline with Tween-80.
The mark [2] stands for this setting: dose: 100.0 mg/kg/injection, schedule: Q01DX009 (ip), vehicle: saline with Tween-80.
Where [3] appears, read: dose: 12.5 mg/kg/injection, schedule: Q01DX009 (ip), vehicle: saline with Tween-80.
[4] abbreviates: dose: 25.0 mg/kg/injection, schedule: Q01DX009 (ip), vehicle: saline with Tween-80.

SMILES strings stand for the structures. Values joined by “and” are separate entries in the source; they are usually repeats but may differ in a detail not shown here. Equal entries are not always repeated. Toxic doses and inconclusive results are not listed.

As for `CNC1C(=O)C(C)C(O)(C(CC(C)C(O)/C=C/C=C/CNC(=O)C(C)(C)C(O)\C(C)=C/C=C\C=C\Cc2cnc(C)o2)OC)C12C(=O)OC2COC` (stereo not given) (tested in a mixture with another compound), the T/C reads like this: (dose: 1.0 mg/kg/injection, schedule: Q01DX005 (ip), vehicle: DMSO) 104 % of control; (dose: 2.0 mg/kg/injection, schedule: Q01DX005 (ip), vehicle: DMSO) 93 % of control.

Consider `CN(C)c1ccc(/C=[N+](\C)[O-])cc1`, for which the T/C is 91 % of control (dose: 50.0 mg/kg/injection, schedule: Q01DX009 (ip), vehicle: saline); 98 % of control (dose: 100.0 mg/kg/injection, schedule: Q01DX009 (ip), vehicle: saline); 95 % of control (dose: 200.0 mg/kg/injection, schedule: Q01DX009 (ip), vehicle: saline).

On to `CC(C)C(N)C(=O)Nc1nncs1` (stereo not given), for which the T/C by setting is: (dose: 100.0 mg/kg/injection, schedule: Q04DX002 (ip), vehicle: saline) 106 % of control; (dose: 200.0 mg/kg/injection, schedule: Q04DX002 (ip), vehicle: saline) 183 % of control; (dose: 400.0 mg/kg/injection, schedule: Q04DX002 (ip), vehicle: saline) 157 % of control and 190 % of control; (dose: 600.0 mg/kg/injection, schedule: Q04DX002 (ip), vehicle: saline) 171 % of control.

On to `CC[CH2][Sn]([Cl])([Cl])[CH2]CC.Oc1ccccc1C=NCCN=Cc1ccccc1O`, for which the T/C was 111 % of control (dose: 0.6 mg/kg/injection, schedule: Q01DX009 (ip), vehicle: gum acacia) and 159 % of control (dose: 5.0 mg/kg/injection, schedule: Q01DX009 (ip), vehicle: gum acacia).

For `Cc1cnc(C)c2ccccc12`, the T/C is, setting by setting: under setting [1], 109 % of control; under setting [2], 117 % of control.

With `O=P(N1CCCCCC1)(N1CC1)N1CC1`, the T/C by setting is: (dose: 0.47 mg/kg/injection, schedule: Q01DX009 (ip), vehicle: saline) 102 % of control; (dose: 0.94 mg/kg/injection, schedule: Q01DX009 (ip), vehicle: saline) 108 % of control; (dose: 0.94 mg/kg/injection, schedule: Q04DX003 (ip), vehicle: saline) 117 % of control; (dose: 1.87 mg/kg/injection, schedule: Q01DX009 (ip), vehicle: saline) 118 % of control; (dose: 1.88 mg/kg/injection, schedule: Q01DX009 (ip), vehicle: saline) 118 % of control; (dose: 3.75 mg/kg/injection, schedule: Q04DX003 (ip), vehicle: saline) 161 % of control. Further, the T/C runs as follows: (dose: 7.5 mg/kg/injection, schedule: Q04DX003 (ip), vehicle: saline) 227 % of control; (dose: 15.0 mg/kg/injection, schedule: Q04DX003 (ip), vehicle: saline) 165 % of control; (dose: 22.0 mg/kg/injection, schedule: Q04DX003 (ip), vehicle: saline) 190 % of control; (dose: 30.0 mg/kg/injection, schedule: Q04DX003 (ip), vehicle: saline) 200 % of control; (dose: 33.0 mg/kg/injection, schedule: Q04DX003 (ip), vehicle: saline) 259 % of control.

In the case of `O=c1[nH]/c(=C/c2ccccc2)c(=O)[nH]/c1=C/C=C/c1ccccc1`, the T/C was 107 % of control (dose: 25.0 mg/kg/injection, schedule: Q01DX009 (ip), vehicle: Klucel (hydroxypropylcellulose) (HPC)); 104 % of control (dose: 50.0 mg/kg/injection, schedule: Q01DX009 (ip), vehicle: Klucel (hydroxypropylcellulose) (HPC)); 102 % of control (dose: 100.0 mg/kg/injection, schedule: Q01DX009 (ip), vehicle: Klucel (hydroxypropylcellulose) (HPC)).

For the compound `C1=C(CC2=C[P+](c3ccccc3)(c3ccccc3)C=C(c3ccccc3)O2)OC(c2ccccc2)=C[P+]1(c1ccccc1)c1ccccc1`, the T/C (dose: 0.75 mg/kg/injection, schedule: Q01DX005 (ip), vehicle: saline with Tween-80) was 115 % of control and the T/C (dose: 3.0 mg/kg/injection, schedule: Q01DX005 (ip), vehicle: saline) is 124 % of control.

For `Cc1ccc(S(=O)(=O)N(C)C)cc1NC1=NCCO1`, the T/C was 95 % of control (dose: 50.0 mg/kg/injection, schedule: Q01DX001 (ip), vehicle: saline with Tween-80); 95 % of control (dose: 100.0 mg/kg/injection, schedule: Q01DX001 (ip), vehicle: saline with Tween-80); 100 % of control (dose: 200.0 mg/kg/injection, schedule: Q01DX001 (ip), vehicle: saline with Tween-80).

Regarding `CC(=O)[C@@]1(O)CC[C@H]2[C@@H]3C=C(C)C4=CC(=O)CC[C@]4(C)[C@@]3(F)[C@@H](O)C[C@@]21C`, the T/C was 100 % of control under setting [3]; 90 % of control under setting [4]; 109 % of control under setting [1]; 91 % of control (dose: 100.0 mg/kg/injection, schedule: Q04DX003 (ip), vehicle: saline with Tween-80); 95 % of control (dose: 200.0 mg/kg/injection, schedule: Q04DX003 (ip), vehicle: saline with Tween-80); 100 % of control (dose: 400.0 mg/kg/injection, schedule: Q04DX003 (ip), vehicle: saline with Tween-80).

Take `O.Oc1ccccc1C=NCCC[N-]CCCN=Cc1ccccc1O.[Co]`: the T/C is, setting by setting: (dose: 3.13 mg/kg/injection, schedule: Q01DX009 (ip), vehicle: saline with Tween-80) 102 % of control; (dose: 6.25 mg/kg/injection, schedule: Q01DX009 (ip), vehicle: saline with Tween-80) 102 % of control; under setting [3], 123 % of control; under setting [4], 100 % of control and 115 % of control.

Turning to `CCCCCCCCCC(C)CC(=O)NCCCN(C)CCCCN(C)C` (stereo not given), the T/C (dose: 0.78 mg/kg/injection, schedule: Q01DX009 (ip), vehicle: Klucel (hydroxypropylcellulose) (HPC)) is 107 % of control; the T/C (dose: 1.56 mg/kg/injection, schedule: Q01DX009 (ip), vehicle: Klucel (hydroxypropylcellulose) (HPC)) was 105 % of control; the T/C (dose: 3.13 mg/kg/injection, schedule: Q01DX009 (ip), vehicle: Klucel (hydroxypropylcellulose) (HPC)) was 112 % of control; the T/C (dose: 6.25 mg/kg/injection, schedule: Q01DX009 (ip), vehicle: Klucel (hydroxypropylcellulose) (HPC)) was 87 % of control.

For `CC1=CC(=O)C(C(C)C)=CC1=O`, the T/C (dose: 0.75 mg/kg/injection, schedule: Q01DX009 (ip), vehicle: saline with Tween-80) was 100 % of control; the T/C (dose: 1.5 mg/kg/injection, schedule: Q01DX009 (ip), vehicle: saline with Tween-80) is 104 % of control; the T/C (dose: 3.0 mg/kg/injection, schedule: Q01DX009 (ip), vehicle: saline with Tween-80) was 104 % of control.

Take `O=[N+]([O-])c1nccn1CCCO`: the T/C reads like this: (dose: 12.5 mg/kg/injection, schedule: Q01DX009 (ip), vehicle: water) 98 % of control; (dose: 25.0 mg/kg/injection, schedule: Q01DX009 (ip), vehicle: water) 97 % of control; (dose: 50.0 mg/kg/injection, schedule: Q01DX009 (ip), vehicle: water) 100 % of control; (dose: 100.0 mg/kg/injection, schedule: Q01DX009 (ip), vehicle: water) 103 % of control; (dose: 200.0 mg/kg/injection, schedule: Q01DX009 (ip), vehicle: water) 100 % of control.

On to `O=C1C=C2SCCN2C(=O)C1`, for which the T/C was 101 % of control under setting [4]; 92 % of control under setting [1]; 97 % of control under setting [2]; 99 % of control (dose: 200.0 mg/kg/injection, schedule: Q01DX009 (ip), vehicle: saline with Tween-80).

Consider `CC(C)(C)N1CCOCN2CCCCC2CCN(C(C)(C)C)CCOCN2CCCCC2CC1` (stereo not given), for which the T/C by setting is: (dose: 50.0 mg/kg/injection, schedule: Q01DX005 (ip), vehicle: saline) 100 % of control; (dose: 100.0 mg/kg/injection, schedule: Q01DX005 (ip), vehicle: saline) 99 % of control; (dose: 200.0 mg/kg/injection, schedule: Q01DX005 (ip), vehicle: saline) 100 % of control.

Consider `Cc1c2cc[n+](CCO)cc2c(C)c2c1[nH]c1ccc(O)cc12`, for which the T/C (dose: 0.79 mg/kg/injection, schedule: Q04DX003 (ip), vehicle: saline) is 155 % of control; the T/C (dose: 1.56 mg/kg/injection, schedule: Q04DX003 (ip), vehicle: saline) is 165 % of control; the T/C (dose: 3.12 mg/kg/injection, schedule: Q04DX003 (ip), vehicle: saline) is 165 % of control; the T/C (dose: 6.25 mg/kg/injection, schedule: Q04DX003 (ip), vehicle: saline) is 155 % of control; the T/C (dose: 12.5 mg/kg/injection, schedule: Q04DX003 (ip), vehicle: saline) was 100 % of control; the T/C (dose: 25.0 mg/kg/injection, schedule: Q04DX003 (ip), vehicle: saline) is 92 % of control.

Regarding `CC(C)c1c(OC(=O)N(C)C)c(C#N)c2[nH]c3ccccc3n2c1=O`, the T/C by setting is: (dose: 60.0 mg/kg/injection, schedule: Q01DX005 (ip), vehicle: saline with Tween-80) 109 % of control; (dose: 120.0 mg/kg/injection, schedule: Q01DX005 (ip), vehicle: saline with Tween-80) 94 % of control; (dose: 240.0 mg/kg/injection, schedule: Q01DX005 (ip), vehicle: saline with Tween-80) 86 % of control.

Source of the values: PubChem BioAssay AID330 (DTP/NCI, 2004).
